According to ChEMBL document CHEMBL1201862, “PubChem BioAssay data set” (2004):
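1) Cells in 96-well plates. 2) Compound, 48 h, 5 concentrations. 3) Linear interpolation between surrounding doses. 4) Unreached endpoint = highest concentration. At the GI50, growth is halved.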 Active and inactive are the calls of the source. Rule as the data show it: active = GI50 up to about 1.1 µM and inactive = higher.

Assays:
Experiment in all cases: NCI tumour cell line growth inhibition, 48 h
MOLT-4 = test system: MOLT-4
TK-10 = test system: TK-10
M19-MEL = test system: M19-MEL
A498 = test system: A498
UACC-62 = test system: UACC-62
CAKI-1 = test system: CAKI-1
SNB-75 = test system: SNB-75
HCT-15 = test system: HCT-15
KM12 = test system: KM12
K562 = test system: K562
LOX IMVI = test system: LOX IMVI
A549 = test system: A549
SNB-19 = test system: SNB-19
SK-MEL-2 = test system: SK-MEL-2
DMS-114 = test system: DMS-114
OVCAR-5 = test system: OVCAR-5
SK-OV-3 = test system: SK-OV-3
HOP-18 = test system: HOP-18
NCI-H460 = test system: NCI-H460
NCI-H226 = test system: NCI-H226
KM-20L2 = test system: KM-20L2
UACC-257 = test system: UACC-257
ACHN = test system: ACHN
UO-31 = test system: UO-31
M14 = test system: M14
OVCAR-8 = test system: OVCAR-8
SN12C = test system: SN12C
U-251 = test system: U-251
DLD-1 = test system: DLD-1
COLO 205 = test system: COLO 205
SK-MEL-5 = test system: SK-MEL-5
HCC 2998 = test system: HCC 2998
IGROV-1 = test system: IGROV-1
SF-295 = test system: SF-295
LXFL 529 = test system: LXFL 529
NCI-H23 = test system: NCI-H23
RXF 393 = test system: RXF 393
HCT-116 = test system: HCT-116
DMS-273 = test system: DMS-273
HOP-92 = test system: HOP-92
OVCAR-4 = test system: OVCAR-4
SK-MEL-28 = test system: SK-MEL-28
SW-620 = test system: SW-620
786-0 = test system: 786-0
HL-60 = test system: HL-60
SNB-78 = test system: SNB-78
SF-268 = test system: SF-268
EKVX = test system: EKVX
SF-539 = test system: SF-539
CCRF-CEM = test system: CCRF-CEM
NCI-H522 = test system: NCI-H522
Malme-3M = test system: Malme-3M
HOP-62 = test system: HOP-62
HT-29 = test system: HT-29
RPMI-8226 = test system: RPMI-8226
SR = test system: SR
OVCAR-3 = test system: OVCAR-3

Question: Which GI50 (MOLT-4) does the source give for CC(=O)O[C@H]1CCC2[C@@H]3CCC4c5nonc5CC[C@]4(C)C3CC[C@@]21C (stereo partly specified) here?
Answer: The GI50 was > 10 µM (inactive).

Question: What about the GI50 (TK-10) of the same molecule?
Answer: The GI50 was > 10 µM (inactive).

Question: And the GI50 (M19-MEL)?
Answer: Its GI50 is > 10 µM (inactive).

Question: And the GI50 (A498)?
Answer: The GI50 was > 10 µM (inactive).

Question: And the GI50 (UACC-62)?
Answer: Its GI50 is > 10 µM (inactive).

Question: And the GI50 (CAKI-1)?
Answer: The GI50 was > 10 µM (inactive).

Question: What about the GI50 (SNB-75) of the same molecule?
Answer: Its GI50 is 51.3 µM (inactive).

Question: What about the GI50 (HCT-15) of the same molecule?
Answer: Its GI50 is over 10 µM.

Question: And the GI50 (KM12)?
Answer: The GI50 was > 10 µM (inactive).

Question: What about the GI50 (K562) of the same molecule?
Answer: The GI50 was > 10 µM (inactive).

Question: And the GI50 (LOX IMVI)?
Answer: Its GI50 is > 10 µM (inactive).

Question: What about the GI50 (A549) of the same molecule?
Answer: The GI50 was > 10 µM (inactive).

Question: And the GI50 (SNB-19)?
Answer: Its GI50 is > 10 µM (inactive).

Question: And the GI50 (SK-MEL-2)?
Answer: Its GI50 is > 10 µM (inactive).

Question: What about the GI50 (DMS-114) of the same molecule?
Answer: Its GI50 is > 10 µM (inactive).

Question: And the GI50 (OVCAR-5)?
Answer: The GI50 was > 10 µM (inactive).

Question: What about the GI50 (SK-OV-3) of the same molecule?
Answer: The GI50 was > 10 µM (inactive).

Question: What about the GI50 (HOP-18) of the same molecule?
Answer: Its GI50 is > 10 µM (inactive).

Question: And the GI50 (NCI-H460)?
Answer: The GI50 was > 10 µM (inactive).

Question: And the GI50 (NCI-H226)?
Answer: Its GI50 is > 10 µM (inactive).

Question: And the GI50 (KM-20L2)?
Answer: Its GI50 is > 10 µM (inactive).

Question: And the GI50 (UACC-257)?
Answer: Its GI50 is > 10 µM (inactive).

Question: What about the GI50 (ACHN) of the same molecule?
Answer: Its GI50 is 88.7 µM (inactive).

Question: And the GI50 (UO-31)?
Answer: The GI50 was > 10 µM (inactive).

Question: What about the GI50 (M14) of the same molecule?
Answer: Its GI50 is > 10 µM (inactive).

Question: And the GI50 (OVCAR-8)?
Answer: Its GI50 is > 10 µM (inactive).

Question: And the GI50 (SN12C)?
Answer: Its GI50 is > 10 µM (inactive).

Question: And the GI50 (U-251)?
Answer: Its GI50 is > 10 µM (inactive).

Question: And the GI50 (DLD-1)?
Answer: The GI50 was > 10 µM (inactive).

Question: And the GI50 (COLO 205)?
Answer: The GI50 was > 10 µM (inactive).

Question: And the GI50 (SK-MEL-5)?
Answer: The GI50 was > 10 µM (inactive).

Question: What about the GI50 (HCC 2998) of the same molecule?
Answer: The GI50 was > 10 µM (inactive).

Question: What about the GI50 (IGROV-1) of the same molecule?
Answer: Its GI50 is > 10 µM (inactive).

Question: What about the GI50 (SF-295) of the same molecule?
Answer: Its GI50 is > 10 µM (inactive).

Question: What about the GI50 (LXFL 529) of the same molecule?
Answer: The GI50 was > 10 µM (inactive).

Question: And the GI50 (NCI-H23)?
Answer: The GI50 was > 10 µM (inactive).

Question: And the GI50 (RXF 393)?
Answer: The GI50 was > 10 µM (inactive).

Question: What about the GI50 (HCT-116) of the same molecule?
Answer: The GI50 was > 10 µM (inactive).

Question: What about the GI50 (DMS-273) of the same molecule?
Answer: Its GI50 is > 10 µM (inactive).

Question: And the GI50 (HOP-92)?
Answer: The GI50 was > 10 µM (inactive).

Question: What about the GI50 (OVCAR-4) of the same molecule?
Answer: The GI50 was > 10 µM (inactive).

Question: What about the GI50 (SK-MEL-28) of the same molecule?
Answer: The GI50 was > 10 µM (inactive).

Question: And the GI50 (SW-620)?
Answer: The GI50 was > 10 µM (inactive).

Question: And the GI50 (786-0)?
Answer: The GI50 was > 10 µM (inactive).

Question: And the GI50 (HL-60)?
Answer: Its GI50 is > 10 µM (inactive).

Question: And the GI50 (SNB-78)?
Answer: The GI50 was > 10 µM (inactive).

Question: And the GI50 (SF-268)?
Answer: The GI50 was > 10 µM (inactive).

Question: And the GI50 (EKVX)?
Answer: Its GI50 is > 10 µM (inactive).

Question: And the GI50 (SF-539)?
Answer: Its GI50 is > 10 µM (inactive).

Question: And the GI50 (CCRF-CEM)?
Answer: Its GI50 is > 10 µM (inactive).

Question: What about the GI50 (NCI-H522) of the same molecule?
Answer: The GI50 was > 10 µM (inactive).

Question: And the GI50 (Malme-3M)?
Answer: The GI50 was > 10 µM (inactive).

Question: What about the GI50 (HOP-62) of the same molecule?
Answer: Its GI50 is > 10 µM (inactive).

Question: And the GI50 (HT-29)?
Answer: Its GI50 is > 10 µM (inactive).

Question: Which results are given for Cn1cnc([N+](=O)[O-])c1Sc1nc2cc(Cl)c(F)cc2[nH]1?
Answer: GI50 (MOLT-4): 2.08 µM (inactive); GI50 (TK-10): 14.5 µM (inactive); GI50 (M19-MEL): 11.7 µM (inactive); GI50 (RPMI-8226): 7.24 µM (inactive); GI50 (A498): 18.6 µM (inactive); GI50 (UACC-62): 14 µM (inactive); GI50 (CAKI-1): 2.58 µM (inactive); GI50 (SNB-75): 13.8 µM (inactive); GI50 (HCT-15): 4.37 µM; GI50 (KM12): 15 µM (inactive); GI50 (SR): 1.75 µM (inactive); GI50 (LOX IMVI): 16.1 µM (inactive); GI50 (A549): 15.3 µM (inactive); GI50 (SNB-19): 26.4 µM (inactive); GI50 (DMS-114): 6.35 µM (inactive); GI50 (OVCAR-5): 16.8 µM (inactive); GI50 (OVCAR-3): > 10 µM (inactive); GI50 (SK-OV-3): 21.5 µM (inactive); GI50 (HOP-18): 7.8 µM (inactive); GI50 (NCI-H460): 10.3 µM (inactive); GI50 (NCI-H226): 9.55 µM (inactive); GI50 (KM-20L2): 11.4 µM (inactive); GI50 (UACC-257): 11.6 µM (inactive); GI50 (ACHN): 12.9 µM (inactive); GI50 (UO-31): 11.3 µM (inactive); GI50 (M14): 13.5 µM (inactive); GI50 (OVCAR-8): 3.75 µM (inactive); GI50 (SN12C): 14.1 µM (inactive); GI50 (U-251): 8.41 µM (inactive); GI50 (DLD-1): 7.67 µM (inactive); GI50 (COLO 205): 6.43 µM (inactive); GI50 (SK-MEL-5): 11.7 µM (inactive); GI50 (HCC 2998): 7.6 µM (inactive); GI50 (IGROV-1): 7.66 µM (inactive); GI50 (SF-295): 48.4 µM (inactive); GI50 (LXFL 529): 5.7 µM (inactive); GI50 (NCI-H23): 11.5 µM (inactive); GI50 (RXF 393): 3.69 µM (inactive); GI50 (HCT-116): 6.9 µM (inactive); GI50 (DMS-273): 3.54 µM (inactive); GI50 (HOP-92): 13.8 µM (inactive); GI50 (OVCAR-4): 4.34 µM (inactive); GI50 (SK-MEL-28): 13.5 µM (inactive); GI50 (SW-620): 5.73 µM (inactive); GI50 (786-0): > 10 µM (inactive); GI50 (SNB-78): 2.43 µM (inactive); GI50 (SF-268): 10.1 µM (inactive); GI50 (EKVX): 1.38 µM (inactive); GI50 (SF-539): 4.32 µM (inactive); GI50 (Malme-3M): 13.7 µM (inactive); GI50 (HOP-62): 74.5 µM (inactive); GI50 (HT-29): 14.9 µM (inactive)
